These are literature values, as cited in patent US9949942B2, “Sustained release delivery of active agents to treat glaucoma and ocular hypertension” (Mati Therapeutics Inc., priority 0208, dated 2018).

For data set [1] the following is noted: man; after topical administration.
Experiment in data set [2]: not given
This is another data set of the same source.

Take `CC(C)OC(=O)CCC/C=C\C[C@@H]1[C@@H](CC[C@@H](O)CCc2ccccc2)[C@H](O)C[C@@H]1O` [Latanoprost, isopropyl-(Z)-7[(1R,2R,3R,5S)3,5-dihydroxy-2-[(3R)-3-hydroxy-5-phenylpentyl]cyclopentyl]-5-heptenoate]: the “time to peak concentration in the aqueous humor” value in data set [1] is recorded as “about two”. Besides, under “acetone, ethanol, ethyl acetate, isopropanol, methanol, octanol”, the “solubility in acetone, ethanol, ethyl acetate, isopropanol, methanol and octanol” value is recorded as “freely soluble”. In addition, the solubility in acetonitrile entry (acetonitrile) was “very soluble”. Further, the solubility in water entry (water) is “practically insoluble”. Also, in data set [2] (clinical trials), the “frequency of retinal artery embolus, retinal detachment, vitreous hemorrhage from diabetic retinopathy” value is “rarely reported”; the “rate of upper respiratory tract infection/cold/flu (most common systemic adverse events)” value is “approximately 4%”; the “subjects requiring discontinuation of therapy because of intolerance to conjunctival hyperemia” value is on record as “Less than 1%”. For the same molecule, in data set [2] (conjunctivitis, diplopia, discharge from the eye), the “ocular adverse events: subjects affected” value is reported as “Less than 1%”.
